Data set [1] in a line: Toxicity in BALB/c mouse xenografted with mouse 4T1 cells assessed as effect on heart morphology at 15 mg/kg, ip administered every 2 days starting from day 7 post-inoculation and measured on day 24 by Hematoxyin-eosin staining based analysis. The format is organism-based. The note with it: in vivo, 432 h, time 18 day.
The test system of data set [2] is 4T1. Description: Antitumor activity against mouse 4T1 cells xenografted in BALB/c mouse assessed as tumor growth inhibition at 15 mg/kg, ip administered every 2 days starting from day 7 post-inoculation and measured on day 24. Type of data set: functional, organism-based. The conditions noted are these: time 18.0 day.
A short description of data set [3]: Toxicity in BALB/c mouse xenografted with mouse 4T1 cells assessed as effect on liver morphology at 15 mg/kg, ip administered every 2 days starting from day 7 post-inoculation and measured on day 24 by Hematoxyin-eosin staining based analysis. The format is organism-based. The conditions noted are these: in vivo, 432 h, time 18 day.
Data set [4] in a line: Toxicity in BALB/c mouse xenografted with mouse 4T1 cells assessed as effect on spleen morphology at 15 mg/kg, ip administered every 2 days starting from day 7 post-inoculation and measured on day 24 by Hematoxyin-eosin staining based analysis. Type of data set: organism-based. The conditions noted are these: in vivo, 432 h, time 18 day.
Data set [5] in a line: Toxicity in BALB/c mouse xenografted with mouse 4T1 cells assessed as effect on body weight at 15 mg/kg, ip administered every 2 days starting from day 7 post-inoculation and measured on day 24. The format is organism-based. The note with it: in vivo, 432 h, time 18 day.
The nature of data set [6]: Toxicity in BALB/c mouse xenografted with mouse 4T1 cells assessed as effect on kidney morphology at 15 mg/kg, ip administered every 2 days starting from day 7 post-inoculation and measured on day 24 by Hematoxyin-eosin staining based analysis. The format is organism-based. The conditions noted are these: in vivo, 432 h, time 18 day.
Data set [7] deals with HeLa. As to the kind of experiment: Downregulation of HIF-1 alpha expression in human HeLa cells at 50 to 150 umol/L incubated under normoxia conditions for 4 hrs in presence of CoCl2 by Western blot analysis. The format is functional, cell-based. The note with it: dose 50-150 µmol/L.
Data set [8] is described as follows: Toxicity in BALB/c mouse xenografted with mouse 4T1 cells assessed as effect on kidney morphology at 15 mg/kg, iv administered every 2 days starting from day 7 post-inoculation and measured on day 24 by Hematoxyin-eosin staining based analysis. The note with it: in vivo, 432 h, time 18 day. Type of data set: organism-based.
The subject of data set [9] is HeLa. Description: Inhibition of colony formation in human HeLa cells incubated under hypoxia condition for 10 days. Type of data set: functional, cell-based. The conditions noted are these: dose 5-50 µmol/L, time 10.0 day.
Data set [10] concerns HeLa. Description: Downregulation of HIF-1alpha expression in human HeLa cells at 50 to 150 umol/L incubated under hypoxia condition for 4 hrs by immunofluorescence analysis. The conditions noted are these: dose 50-150 µmol/L. The format is functional, cell-based.
Data set [11] can be described thus: Toxicity in BALB/c mouse xenografted with mouse 4T1 cells assessed as effect on body weight at 15 mg/kg, iv administered every 2 days starting from day 7 post-inoculation and measured on day 24. The note with it: in vivo, 432 h, time 18 day. The format is organism-based.
For data set [12], the system named is HeLa. As to the kind of experiment: Antiinvasive activity in human HeLa cells assessed as inhibition of cell invasion at 50 to 150 umol/L incubated under hypoxia condition for 36 hrs by transwell invasion assay. Type of data set: functional, cell-based. The note with it: dose 50-150 µmol/L.
Data set [13] relates to MCF7. Description: Downregulation of HIF-1alpha expression in human MCF7 cells at 50 to 150 umol/L incubated under hypoxia condition for 4 hrs by Western blot analysis. The note with it: dose 50-150 µmol/L. Type of data set: functional, cell-based.
Data set [14] concerns HeLa. Description: Downregulation of HIF-1 alpha expression in human HeLa cells assessed as half life of the protein at 150 umol/L incubated under CoCl2-stimulated hypoxia conditions for 4 hrs followed by incubation with compound and protein translation inhibitor, CHX under normoxia conditions for 240 mins by Western blot analysis (reference value: 33.4 mins). The note with it: dose 150.0 µmol/L. The format is functional, cell-based.

Data set [15] concerns HeLa. As to the kind of experiment: Cytotoxicity against human HeLa cells assessed as cell viability at 6.3 to 150 umol/L incubated under normoxic conditions for 24 hrs by MTT assay. Type of data set: cell-based. The note with it: dose 6.3-150 µmol/L.
Data set [16] relates to 4T1. Description: Antitumor activity against mouse 4T1 cells xenografted in BALB/c mouse assessed as tumor growth inhibition at 15 mg/kg, iv administered every 2 days starting from day 7 post-inoculation and measured on day 24. Type of data set: functional, organism-based. The note with it: time 18.0 day.
Data set [17] relates to HeLa. As to the kind of experiment: Inhibition of cell migration in human HeLa cells at 10 to 50 umol/L incubated under hypoxia condition for 36 hrs by wound healing assay. Type of data set: functional, cell-based. The note with it: dose 10-50 µmol/L.
For data set [18], the system named is HUVEC. As to the kind of experiment: Inhibition of angiogenesis in human HUVEC cells assessed as disruption of tube formation at 150 umol/L incubated under hypoxia condition for 6 hrs by Matrigel based analysis. The format is functional, cell-based. The note with it: dose 150.0 µmol/L.
The nature of data set [19]: Toxicity in BALB/c mouse xenografted with mouse 4T1 cells assessed as effect on liver morphology at 15 mg/kg, iv administered every 2 days starting from day 7 post-inoculation and measured on day 24 by Hematoxyin-eosin staining based analysis. The format is organism-based. The note with it: in vivo, 432 h, time 18 day.
The subject of data set [20] is 4T1. Description: Downregulation of HIF-1alpha protein expression in tumor tissue of BALB/c mouse xenografted with mouse 4T1 cells at 15 mg/kg, iv administered every 2 days starting from day 7 post-inoculation and measured on day 24 by immunofluorescence analysis. The format is functional, organism-based. The note with it: time 18.0 day.
Data set [21] deals with HeLa. As to the kind of experiment: Cytotoxicity against human HeLa cells assessed as cell viability at 6.3 to 150 umol/L incubated under hypoxia condition for 24 hrs by MTT assay. The note with it: dose 6.3-150 µmol/L. Type of data set: cell-based.
Data set [22] relates to HeLa. As to the kind of experiment: Downregulation of HIF-1 alpha expression in human HeLa cells at 100 to 150 umol/L incubated under hypoxia conditions for 4 hrs in presence of proteasome inhibitor, MG132 by Western blot analysis. The format is functional, cell-based. The conditions noted are these: dose 100-150 µmol/L.
The subject of data set [23] is HeLa. Description: Downregulation of HIF-1 alpha expression in human HeLa cells at 50 to 150 umol/L incubated under hypoxia conditions for 4 hrs by Western blot analysis. Type of data set: functional, cell-based. The note with it: dose 50-150 µmol/L.
For data set [24], the system named is 4T1. As to the kind of experiment: Downregulation of HIF-1alpha expression in mouse 4T1 cells at 50 to 150 umol/L incubated under hypoxia condition for 4 hrs by Western blot analysis. Type of data set: functional, cell-based. The conditions noted are these: dose 50-150 µmol/L.
The target of data set [25] is T1, Hypoxia-inducible factor 1-alpha (Homo sapiens, UniProt Q16665). Description: Inhibition of HIF-1alpha in human HeLa cells transfected with HRE-driven firefly luciferase gene pretreated with compound followed by incubation under normoxic condition for 1 hr followed by hypoxic condition for 12 hrs by dual luciferase reporter gene assay. Type of data set: cell-based.

For data set [26], the system named is HeLa. As to the kind of experiment: Downregulation of HIF-1beta expression in human HeLa cells at 50 to 150 umol/L incubated under hypoxia conditions for 4 hrs by western blot analysis. The conditions noted are these: dose 50-150 µmol/L. The format is functional, cell-based.
A short description of data set [27]: Toxicity in BALB/c mouse xenografted with mouse 4T1 cells assessed as effect on heart morphology at 15 mg/kg, iv administered every 2 days starting from day 7 post-inoculation and measured on day 24 by Hematoxyin-eosin staining based analysis. The format is organism-based. The conditions noted are these: in vivo, 432 h, time 18 day.
Data set [28] deals with T1, Hypoxia-inducible factor 1-alpha. Description: Inhibition of HIF-1alpha in human HeLa cells assessed as reduction in VEGF mRNA level incubated under hypoxia condition for 12 hrs by RT-PCR analysis. The format is cell-based. The note with it: dose 25-100 µmol/L.
Target sequence in this assay (Q16665 whole entry, looked up): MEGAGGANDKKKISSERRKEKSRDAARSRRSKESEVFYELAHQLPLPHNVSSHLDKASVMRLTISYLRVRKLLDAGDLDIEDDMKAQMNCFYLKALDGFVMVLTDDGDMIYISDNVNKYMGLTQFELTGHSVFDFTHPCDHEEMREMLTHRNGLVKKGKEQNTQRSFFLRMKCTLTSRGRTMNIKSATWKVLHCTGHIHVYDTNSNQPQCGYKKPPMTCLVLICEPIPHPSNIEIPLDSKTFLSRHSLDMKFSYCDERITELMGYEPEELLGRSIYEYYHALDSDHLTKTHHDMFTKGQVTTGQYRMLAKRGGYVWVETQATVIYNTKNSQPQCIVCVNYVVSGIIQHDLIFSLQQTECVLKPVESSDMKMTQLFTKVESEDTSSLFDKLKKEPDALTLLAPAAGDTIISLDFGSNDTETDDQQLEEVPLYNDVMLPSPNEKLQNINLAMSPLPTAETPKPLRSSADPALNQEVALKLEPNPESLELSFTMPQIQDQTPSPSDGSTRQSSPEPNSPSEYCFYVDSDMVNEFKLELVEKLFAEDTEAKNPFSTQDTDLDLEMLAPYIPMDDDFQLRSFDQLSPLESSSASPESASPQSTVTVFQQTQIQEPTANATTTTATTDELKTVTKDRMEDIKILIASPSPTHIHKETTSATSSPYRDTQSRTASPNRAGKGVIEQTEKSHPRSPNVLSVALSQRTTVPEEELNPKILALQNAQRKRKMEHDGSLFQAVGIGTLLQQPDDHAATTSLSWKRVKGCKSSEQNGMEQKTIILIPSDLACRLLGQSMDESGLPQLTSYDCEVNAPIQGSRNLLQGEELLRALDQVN
Data set [29] in a line: Toxicity in BALB/c mouse xenografted with mouse 4T1 cells assessed as effect on spleen morphology at 15 mg/kg, iv administered every 2 days starting from day 7 post-inoculation and measured on day 24 by Hematoxyin-eosin staining based analysis. Type of data set: organism-based. The note with it: in vivo, 432 h, time 18 day.

Active and inactive are the calls of the source. The rule behind the calls is not given here.

From ChEMBL document CHEMBL4808249, “Total synthesis and biological evaluation of 7-hydroxyneolamellarin A as hypoxia-inducible factor-1α inhibitor for cancer therapy” (Bioorg Med Chem Lett, 2021) come the findings set out here.

In the case of `C=CCNC1=C2C[C@@H](C)C[C@H](OC)[C@H](O)[C@@H](C)/C=C(\C)[C@H](OC(N)=O)[C@@H](OC)/C=C\C=C(/C)C(=O)NC(=CC1=O)C2=O` (stereo in doubt) [TANESPIMYCIN], the Activity result in data set [1], in data set [3], in data set [4], in [5] and in data set [6] was “Non-Toxic” in each case. In data set [2], the outcome was Active.

In the case of `O=C(C(O)c1ccc(O)cc1)n1cc(-c2ccc(O)cc2)c(-c2ccc(O)cc2)c1` (stereo not given) [7-(R/S)-HYDROXYLAMELLARIN A], the inhibition result in [7], in [10], in [13], in [17], in [18] and in data set [20] was “Active” each time. Moreover, the inhibition result in data set [22], in [23] and in data set [24] was “Active” in each case. Besides, the Activity result in data set [8], in [11], in [15], in data set [19], in data set [21] and in data set [27] was “Non-Toxic” in each case. In addition, the Activity result in data set [29] is reported as “Non-Toxic”. In addition, the inhibition result in [9], in data set [25] (time 13.0 hrs) and in data set [28] was “Dose-Dependent Effect” each time. In addition, the result in data set [12] and in [16] was Active. In addition, in [14], the T1/2 came out at 10.4 min. For the same compound, the IC50 in [25] was 23 µM. Besides, in data set [26], the inhibition result is “inactive”.
